The IC50 is the concentration needed to halve the response being measured. A high value points to weaker potency in that assay.

The text below walks through data of patent US20240043860A1, “NOVEL HYDROXYPHENYLPYRUVATE DIOXYGENASE POLYPEPTIDES AND METHODS OF USE THEREOF” (Syngenta Crop Protection AG, priority 2020, published 2024).

Assay [1] relates to HPPD variant AVESA V208 (SEQ ID NO: 14). Put plainly: biochemical. Format: biochemical, Avena sativa. The following applies: SEQ ID NO: 14 compared to control SEQ ID NO: 122. How it is done:
(§1) 25 ul of the overnight cultures were inoculated into fresh 96-deepwell block containing 1 ml Formedium Autoinduction Media (AIM). The AIM cultures were grown for 3h at 37° C. (900rpm) and then transferred to 20° C. overnight (900rpm) to allow protein expression. The overnight cultures were centrifuged and 500 ul of Cellytic B (Sigma Aldrich) was added to resuspend the cell pellets. The coupled HGO assay (Siehl et al, 2014) is used to generate IC50 values for the HPPD variants of interest.
(§2) E. coli BL21 (DE3) cells were transformed with a pET24a vector containing a C-terminally his-tagged Arabidopsis HGO gene, grown and induced overnight as described for the HPPD variants above. The cell pellet was resuspended in phosphate buffered saline at pH 7.4 containing 10% Glycerol, 1mm Tris[2-carboxyethyl] phosphine-HCl (TCEP) plus 30 mM Imidazole and lysed using lysozyme/benzonase. The extract was clarified by low speed centrifugation and purified in the same buffer down a 1 ml His Gravitrap column. The bound HGO was eluted in 0.25M imidazole and the fractions pooled and beaded into liquid nitrogen. All procedures apart from the centrifugation and beading steps were carried out under a nitrogen atmosphere.
(§3) The coupled HGO assay is carried out by adding 10 ul of HPPD extract to a 96-well plate and then adding 40 ul of reaction buffer (50 mM Bis Tris Propane, pH7.0, 25 mM sodium-L-ascorbate, 400μM mercaptoethanol, 50 μM Fe(II)SO4). The plates are left to incubate for 5 minutes on ice. […] 200 ul of HPP/HGO (197 μM hydroxyphenylpyruvic acid, 16 μl/ml Homogentisic Acid Oxidase in reaction buffer as described above) buffer is then added to the well and the reaction is regularly monitored (e.g. every 30 seconds-5 minutes) for absorbance at 330 nm for a given time period (e.g., for between 15-60 minutes). The data can then be used to calculate the IC50 value for each HPPD variant of interest.

Assay [2] has as its system HPPD variant AVESA V201 (SEQ ID NO: 8). Format: biochemical, Avena sativa. The following applies: SEQ ID NO: 8 compared to control SEQ ID NO: 122. How it is done: as §1, §2, §3
The target of assay [3] is HPPD variant AVESA V209 (SEQ ID NO: 17) (Avena sativa, UniProt A0ACD5V6K6, A327R/I340E/L359M/R214G/V218I/V260A). Put plainly: biochemical. The format is biochemical. On the procedure: as §1, §2, §3
For assay [4], the system named is HPPD variant AVESA V209 (SEQ ID NO: 17). Kind of assay: biochemical. The following applies: SEQ ID NO: 17 compared to control SEQ ID NO: 122. The format is biochemical, Avena sativa. How it is done: as §1, §2, §3
Assay [5] has as its system transgenic tobacco plants expressing mutant HPPD SEQ ID NO: 21. Kind of assay: spray test, herbicidal damage scoring. The format is in vivo. To be noted: 2000 g/ha; SEQ ID 21 plants compared to plants expressing SEQ IDs 122, 124 or 125. How it is done: (§4) Avena sativa HPPD or orthologues and variants thereof, for example SEQ IDs 1-63 and 122-127, were expressed in transgenic tobacco. DNA sequences that encode these polypeptides (optimized for tobacco or, optionally, codon optimized according to a target crop such as soybean) were prepared synthetically. Each sequence was designed to include a 5′ fusion with TMV omega 5′ leader sequence such that they are flanked at the 5′ end with XhoI and at the 3′ end with KpnI to facilitate direct cloning into a suitable binary vector for Agrobacterium-based plant transformation. […]
(§5) Plants are assessed for damage and scored at, for example, 7 and 14 days after treatment (DAT). […]
(§6) Plants of events showing the least damage are grown to flowering, then bagged and allowed to self. […] Single copy events amongst the Ti plant lines are identified by their 3:1 segregation ratio (with respect to kanamycin and/or herbicide) and by quantitative RT-PCR. […] HPPD expression levels were monitored by Western analysis. […]

For assay [6], the system named is transgenic tobacco plants expressing mutant HPPD SEQ ID NO: 8. Kind of assay: spray test, herbicidal damage scoring. The following applies: 2000 g/ha; SEQ ID 8 plants compared to plants expressing SEQ IDs 122, 124 or 125. Format: in vivo. On the procedure: as §4, §5, §6

Sequence of HPPD variant AVESA V209 (SEQ ID NO: 17) (Avena sativa, UniProt A0ACD5V6K6, A327R/I340E/L359M/R214G/V218I/V260A) (A0ACD5V6K6 entry or part of it R214G/V218I/V260A/A327R/I340E/L359M): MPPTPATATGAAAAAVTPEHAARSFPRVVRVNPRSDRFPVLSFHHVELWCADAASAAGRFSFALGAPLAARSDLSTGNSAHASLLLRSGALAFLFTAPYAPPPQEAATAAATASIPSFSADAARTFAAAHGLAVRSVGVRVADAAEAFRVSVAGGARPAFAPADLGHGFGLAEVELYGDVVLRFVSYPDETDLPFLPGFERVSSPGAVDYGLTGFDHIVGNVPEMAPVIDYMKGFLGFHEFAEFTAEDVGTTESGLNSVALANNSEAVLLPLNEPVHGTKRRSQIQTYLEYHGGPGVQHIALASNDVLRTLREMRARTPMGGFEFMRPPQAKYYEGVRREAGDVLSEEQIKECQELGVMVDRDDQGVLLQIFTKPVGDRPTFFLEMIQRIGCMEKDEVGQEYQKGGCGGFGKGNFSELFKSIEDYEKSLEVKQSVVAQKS

In the case of `COc1ccc(-n2nc(C)cc(C(=O)C3C(=O)CCCC3=O)c2=O)cc1OC` [Herbicide C, dioxopyritrione], the “increase of the IC50 value” in assay [1] is above 200 fold.

With `Cn1nnnc1NC(=O)c1ccc(C(F)(F)F)nc1-n1cncn1` [Herbicide D, N-(1-methyltetrazol-5-yl)-2-(1,2,4-triazol-1-yl)-6-(trifluoromethyl)pyridine-3-carboxamide], the “increase of the IC50 value” in assay [2] was around 80 fold; in assay [4], around 14 fold. Further, in assay [3], half-maximal inhibition (IC50) was put at 106 µM. In addition, the damage entry in assay [5] and in assay [6] was “significantly reduced damage” each time.
